Experimental data reported in ChEMBL document CHEMBL5126567, “Synthesis of novel immunomodulatory 1,4-disubstituted bis-1,2,3-triazoles by using click chemistry and their intracellular mechanism of action” (Bioorg Med Chem Lett, 2022).
The source made the active and inactive calls. The calls are words filed in the database; no cut-off is given here.

What was measured:
J774.2 [1] = assay: Antiinflammatory activity in LPS-induced mouse J774.2 cells assessed as decrease in GMCSF level at 1 to 10 ug/mL measured after 24 hrs by ELISA; assay type: functional, cell-based; conditions: dose 1-10 µg/ml
J774.2 [2] = assay: Cytotoxicity against mouse J774.2 cells assessed as cell viability; assay type: toxicity, cell-based
J774.2 [3] = assay: Inhibition of PI3K/AKT signalling pathway in LPS-induced mouse J774.2 cells assessed as decrease in phosphorylated PI3K level at 10 ug/mL after 24 hrs by flow cytometry; assay type: cell-based; conditions: dose 10.0 µg/ml
J774.2 [4] = assay: Antiinflammatory activity in LPS-induced mouse J774.2 cells assessed as decrease in IL6 level at 1 to 10 ug/mL measured after 24 hrs by ELISA; assay type: functional, cell-based; conditions: dose 1-10 µg/ml
J774.2 [5] = assay: Antiinflammatory activity in LPS-induced mouse J774.2 cells assessed as decrease in TNF-alpha level at 1 to 10 ug/mL measured after 24 hrs by ELISA; assay type: functional, cell-based; conditions: dose 1-10 µg/ml

O=C(Cn1cc(C2CC2)nn1)Nc1ccccc1NC(=O)Cn1cc(C2CC2)nn1
Activity (J774.2 [1]): Active | Activity (J774.2 [2]): Non-Toxic | inhibition (J774.2 [3]): Active | Activity (J774.2 [4]): Active | Activity (J774.2 [5]): Active

O=C(Cn1cc(-c2ccccc2)nn1)Nc1ccccc1NC(=O)Cn1cc(-c2ccccc2)nn1
Activity (J774.2 [1]): Active | Activity (J774.2 [2]): Non-Toxic | Activity (J774.2 [4]): Active | Activity (J774.2 [5]): Active

O=C(Cn1cc(CC2CCCCC2)nn1)Nc1ccccc1NC(=O)Cn1cc(CC2CCCCC2)nn1
Activity (J774.2 [1]): Active | Activity (J774.2 [2]): Non-Toxic | inhibition (J774.2 [3]): Active | Activity (J774.2 [4]): Active | Activity (J774.2 [5]): Active

O=C(Cn1cc(C2CCCC2)nn1)Nc1ccccc1NC(=O)Cn1cc(C2CCCC2)nn1
Activity (J774.2 [1]): Active | Activity (J774.2 [2]): Non-Toxic | inhibition (J774.2 [3]): Active | Activity (J774.2 [4]): Active | Activity (J774.2 [5]): Active

CCOC(=O)c1cn(CC(=O)Nc2ccccc2NC(=O)Cn2cc(C(=O)OCC)nn2)nn1
Activity (J774.2 [1]): Active | Activity (J774.2 [2]): Non-Toxic | Activity (J774.2 [4]): Active | Activity (J774.2 [5]): Active

CCCC(C)c1cn(CC(=O)Nc2ccccc2NC(=O)Cn2cc(C(C)CCC)nn2)nn1 (stereo not drawn)
Activity (J774.2 [1]): Active | Activity (J774.2 [2]): Non-Toxic | inhibition (J774.2 [3]): Active | Activity (J774.2 [4]): Active | Activity (J774.2 [5]): Active
